Here are results for eleven compounds from BigSolDB 2.1.

The conditions of the data set: in n-hexane.

The solubility (mole fraction) is the moles of solute divided by all moles in the saturated solution.

SMILES strings stand for the structures.

Regarding `CCc1ccc(NC2=NCCC3(CCCCC3)S2)cc1`, the solubility (mole fraction) was found to be 0.000365 (293.15 K); 0.000431 (298.15 K); 0.000508 (303.15 K); 0.000617 (310.15 K); 0.000885 (315.15 K).
The matching figures for `c1ccc(NC2=NCCC3(CCCCC3)S2)cc1`: 0.00115, 0.0013, 0.00148, 0.0019 and 0.00215.
Regarding `Brc1ccc(NC2=NCCC3(CCCCC3)S2)cc1`, the solubility (mole fraction) worked out at 2.46e-05 (293.15 K); 3.31e-05 (298.15 K); 4.34e-05 (303.15 K); 6.54e-05 (310.15 K); 8.27e-05 (315.15 K).
The matching figures for `Cc1ccc(NC2=NCCC3(CCCCC3)S2)cc1Cl`: 8.6e-06, 1.15e-05, 1.48e-05, 2.15e-05 and 2.68e-05.
For `Cc1ccc(NC2=NCCC3(CCCCC3)S2)cc1`, the solubility (mole fraction) by setting is: (293.15 K) 0.00028; (298.15 K) 0.000326; (303.15 K) 0.000379; (310.15 K) 0.000445; (315.15 K) 0.00052.
For the compound `CC(C)c1ccc(NC2=NCCC3(CCCCC3)S2)cc1`, the solubility (mole fraction) stood at 0.000514 (293.15 K); 0.00061 (298.15 K); 0.000742 (303.15 K); 0.000919 (310.15 K); 0.0011 (315.15 K).
With `O=C(NC1=NCCC2(CCCCC2)S1)c1ccccc1`, the solubility (mole fraction) by setting is: (293.15 K) 0.000124; (298.15 K) 0.000153; (303.15 K) 0.000189; (310.15 K) 0.00025; (315.15 K) 0.000295.
In turn, `Clc1ccc(NC2=NCCC3(CCCCC3)S2)cc1` registered a solubility (mole fraction) (293.15 K) of 6.09e-05; a solubility (mole fraction) (298.15 K) of 7.93e-05; a solubility (mole fraction) (303.15 K) of 0.000101; a solubility (mole fraction) (310.15 K) of 0.000136; a solubility (mole fraction) (315.15 K) of 0.00017.
For `FC(F)(F)c1ccc(NC2=NCCC3(CCCCC3)S2)cc1` the same measures were 0.000214, 0.000272, 0.000345, 0.000424 and 0.00057.
The matching figures for `COc1ccc(NC2=NCCC3(CCCCC3)S2)cc1`: 0.000149, 0.000182, 0.000221, 0.000295 and 0.000357.
As to `CC(=O)c1ccc(NC2=NCCC3(CCCCC3)S2)cc1`, the solubility (mole fraction) was determined as 1.56e-05 (293.15 K); 1.93e-05 (298.15 K); 2.42e-05 (303.15 K); 3.23e-05 (310.15 K); 3.95e-05 (315.15 K).
